Data as given in ChEMBL document CHEMBL2150961, “Serum stability of selected decapeptide agonists of KISS1R using pseudopeptides” (Bioorg Med Chem Lett, 2012).
Starred links: 1 amine or outer side, 2 acyl side, 3 side chain; linkers in the order of their positions; H or OH if unused. Non-standard residues stand in square brackets, D forms with d. Residues, ends and D or L forms follow the SMILES beside them. X1 = O=C(CNC(=S)[C@H](Cc1ccccc1)N[*:1])[*:2]; 2Nal = N[C@@H](Cc1ccc2ccccc2c1)C(=O)O; Arg(Me) = CNC(=N)NCCC[C@H](N)C(=O)O; 3Pal = N[C@@H](Cc1cccnc1)C(=O)O; 4Pal = N[C@@H](Cc1ccncc1)C(=O)O; d4Pal = N[C@H](Cc1ccncc1)C(=O)O; azaGly = NNC(=O)O

What was measured:
KiSS-1 receptor [1] = target: T1, KiSS-1 receptor (Homo sapiens, UniProt Q969F8); assay: Agonist activity at human KISS1R assessed as induction of intracellular calcium mobilization by fluorometric analysis; format: functional, cell-based
T1 sequence (Q969F8 whole entry): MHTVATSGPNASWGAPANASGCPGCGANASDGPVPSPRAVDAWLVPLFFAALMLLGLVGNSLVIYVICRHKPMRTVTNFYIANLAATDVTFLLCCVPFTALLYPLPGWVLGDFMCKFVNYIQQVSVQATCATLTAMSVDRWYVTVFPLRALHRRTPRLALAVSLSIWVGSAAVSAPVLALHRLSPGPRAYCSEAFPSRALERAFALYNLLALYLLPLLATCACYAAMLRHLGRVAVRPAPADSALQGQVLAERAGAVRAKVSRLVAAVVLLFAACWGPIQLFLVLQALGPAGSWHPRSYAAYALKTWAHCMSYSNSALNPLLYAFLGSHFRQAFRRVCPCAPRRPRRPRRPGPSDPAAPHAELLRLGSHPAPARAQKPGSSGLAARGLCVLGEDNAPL

KiSS-1 receptor [2] = target: KiSS-1 receptor (Rattus norvegicus, UniProt Q924U1); assay: Binding affinity to rat KISS1R
KiSS-1 receptor (Rattus norvegicus, UniProt Q924U1), sequence (Q924U1 whole entry): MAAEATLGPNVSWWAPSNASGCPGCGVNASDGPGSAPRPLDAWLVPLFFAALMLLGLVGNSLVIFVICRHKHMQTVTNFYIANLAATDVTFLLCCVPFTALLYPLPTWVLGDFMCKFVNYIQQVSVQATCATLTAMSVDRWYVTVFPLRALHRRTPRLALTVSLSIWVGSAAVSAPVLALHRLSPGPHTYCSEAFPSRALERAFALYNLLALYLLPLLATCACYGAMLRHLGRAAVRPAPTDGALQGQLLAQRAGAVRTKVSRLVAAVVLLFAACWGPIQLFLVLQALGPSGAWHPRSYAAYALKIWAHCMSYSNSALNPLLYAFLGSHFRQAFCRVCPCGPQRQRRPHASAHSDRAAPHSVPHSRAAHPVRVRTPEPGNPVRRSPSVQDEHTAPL

[3] = Metabolic stability of the compound in mouse serum assessed as compound residual ratio at 0.1 mM after 1 hr; format: ADME, cell-free; details: read-out: Stability
KiSS-1 receptor [4] = target: T1, KiSS-1 receptor; assay: Binding affinity to human KISS1R
[5] = Metabolic stability of the compound in human serum assessed as compound residual ratio after 5 mins; format: ADME, cell-free; details: read-out: Stability
[6] = Metabolic stability of the compound in human serum assessed as compound residual ratio after 10 mins; format: ADME, cell-free; details: read-out: Stability
[7] = Metabolic stability of the compound in human serum assessed as compound residual ratio after 15 mins; format: ADME, cell-free; details: read-out: Stability
Serum = assay: Metabolic stability of the compound in human serum; format: ADME, cell-free
[8] = Half life in human serum; format: ADME, cell-free
[9] = Drug metabolism in mouse plasma at 0.1 mM after 1 min by HPLC-ESI-MS analysis; format: ADME, cell-free; details: read-out: Drug metabolism

EC50 (KiSS-1 receptor [1]) [nM]	IC50 (KiSS-1 receptor [2]) [nM]	remaining at 1 h, 100 µM [3] [%]	IC50 (KiSS-1 receptor [4]) [nM]	remaining at 5 min [5] [%]	remaining at 10 min [6] [%]	remaining at 0.25 h [7] [%]	Stability (Serum)	half-life [8] [h]	metabolised at 1 min, 100 µM [9] [%]	Compound
0.24	0.89	50.6	0.7	–	–	–	–	–	–	CNC(=N)NCCC[C@H](NC(=O)[C@H](CC(C)C)NC(=O)NNC(=O)[C@H](Cc1ccccc1)NC(=O)[C@H](CO)NC(=O)[C@H](CC(N)=O)NC(=O)[C@H](Cc1cccnc1)NC(=O)[C@H](CC(N)=O)NC(=O)[C@H](N)Cc1ccc(O)cc1)C(=O)N[C@@H](Cc1ccccc1)C(N)=O (H-[dY]N[3Pal]NSF[azaGly]L[Arg(Me)]F-NH2)
0.24	0.83	62.5	0.86	–	–	–	–	–	–	CNC(N)=NCCC[C@H](NC(=O)[C@H](CC(C)C)NC(=O)NNC(=O)[C@H](Cc1ccccc1)NC(=O)[C@H](CO)NC(=O)[C@H](CC(N)=O)NC(=O)[C@@H](NC(=O)[C@H](CC(N)=O)NC(=O)[C@H](N)Cc1ccc(O)cc1)[C@@H](C)O)C(=O)N[C@@H](Cc1ccccc1)C(N)=O (H-[dY]NTNSF[azaGly]L[Arg(Me)]F-NH2)
0.13	0.46	–	0.43	–	–	–	–	–	–	CC[C@H](C)[C@H](NC(=O)[C@H](CC(N)=O)NC(=O)[C@H](N)Cc1ccc(O)cc1)C(=O)N[C@@H](CC(N)=O)C(=O)N[C@@H](CO)C(=O)N[C@@H](Cc1ccccc1)C(=O)NNC(=O)N[C@@H](CC(C)C)C(=O)N[C@@H](CCCNC(=N)NC)C(=O)N[C@@H](Cc1ccccc1)C(N)=O (H-[dY]NINSF[azaGly]L[Arg(Me)]F-NH2)
0.73	0.43	50	0.49	86.5	85.3	86.4	Stable	–	–	CNC(N)=NCCC[C@H](NC(=O)[C@H](CC(C)C)NC(=O)NNC(=O)[C@H](Cc1ccccc1)NC(=O)[C@H](CO)NC(=O)[C@H](CC(N)=O)NC(=O)[C@H](CO)NC(=O)[C@H](CC(N)=O)NC(=O)[C@H](N)Cc1ccc(O)cc1)C(=O)N[C@@H](Cc1ccccc1)C(N)=O (H-[dY]NSNSF[azaGly]L[Arg(Me)]F-NH2)
0.1	0.24	32	0.19	–	–	–	–	–	–	CNC(N)=NCCC[C@H](NC(=O)[C@H](CC(C)C)NC(=O)NNC(=O)[C@H](Cc1ccccc1)NC(=O)[C@H](CO)NC(=O)[C@H](CC(N)=O)NC(=O)[C@H](CC1CCCCC1)NC(=O)[C@H](CC(N)=O)NC(=O)[C@H](N)Cc1ccc(O)cc1)C(=O)N[C@@H](Cc1ccccc1)C(N)=O
0.11	0.28	30.7	0.3	–	–	–	–	–	–	CNC(N)=NCCC[C@H](NC(=O)[C@H](CC(C)C)NC(=O)NNC(=O)[C@H](Cc1ccccc1)NC(=O)[C@H](CO)NC(=O)[C@H](CC(N)=O)NC(=O)[C@H](Cc1ccncc1)NC(=O)[C@H](CC(N)=O)NC(=O)[C@H](N)Cc1ccc(O)cc1)C(=O)N[C@@H](Cc1ccccc1)C(N)=O (H-[dY]N[4Pal]NSF[azaGly]L[Arg(Me)]F-NH2)
–	–	39.5	0.16	–	–	–	–	–	–	CNC(=N)NCCC[C@H](NC(=O)[C@H](CC(C)C)NC(=O)NNC(=O)[C@H](Cc1ccccc1)NC(=O)[C@H](CO)NC(=O)[C@H](CC(N)=O)NC(=O)[C@H](Cc1c[nH]c2ccccc12)NC(=O)[C@H](CC(N)=O)NC(=O)[C@H](N)Cc1ccc(O)cc1)C(=O)N[C@@H](Cc1ccccc1)C(N)=O
0.62	1.4	12.1	0.61	–	–	–	–	–	–	CNC(N)=NCCC[C@H](NC(=O)[C@H](CC(C)C)NC(=O)CNC[C@H](Cc1ccccc1)NC(=O)[C@H](CO)NC(=O)[C@H](CC(N)=O)NC(=O)[C@H](Cc1c[nH]c2ccccc12)NC(=O)[C@H](CC(N)=O)NC(=O)[C@H](N)Cc1ccc(O)cc1)C(=O)N[C@@H](Cc1ccccc1)C(N)=O
0.098	0.2	43.6	0.13	–	–	–	–	–	–	CNC(=N)NCCC[C@H](NC(=O)[C@H](CC(C)C)NC(=O)NNC(=O)[C@H](Cc1ccccc1)NC(=O)[C@H](CO)NC(=O)[C@H](CC(N)=O)NC(=O)[C@H](Cc1ccc2ccccc2c1)NC(=O)[C@H](CC(N)=O)NC(=O)[C@H](N)Cc1ccc(O)cc1)C(=O)N[C@@H](Cc1ccccc1)C(N)=O (H-[dY]N[2Nal]NSF[azaGly]L[Arg(Me)]F-NH2)
0.59	0.28	–	0.28	–	–	–	–	–	–	CNC(N)=NCCC[C@H](NC(=O)[C@H](CC(C)C)NC(=O)NNC(=O)[C@H](Cc1ccccc1)NC(=O)[C@H](CO)NC(=O)[C@H](CC(N)=O)NC(=O)[C@@H](Cc1ccncc1)NC(=O)[C@H](CC(N)=O)NC(=O)[C@H](N)Cc1ccc(O)cc1)C(=O)N[C@@H](Cc1ccccc1)C(N)=O (H-[dY]N[d4Pal]NSF[azaGly]L[Arg(Me)]F-NH2)
0.065	–	18.1	0.11	90.7	85.8	82.7	–	1.25	–	CNC(N)=NCCC[C@H](NC(=O)[C@H](CC(C)C)NC(=O)CNC(=O)[C@H](Cc1ccccc1)NC(=O)[C@H](CO)NC(=O)[C@H](CC(N)=O)NC(=O)[C@H](Cc1c[nH]c2ccccc12)NC(=O)[C@H](CC(N)=O)NC(=O)[C@H](N)Cc1ccc(O)cc1)C(=O)N[C@@H](Cc1ccccc1)C(N)=O
0.072	–	56.4	0.19	–	–	–	–	–	–	CNC(N)=NCCC[C@H](NC(=O)[C@H](CC(C)C)NC(=O)NNC(=O)[C@H](Cc1ccccc1)NC(=O)[C@H](CO)NC(=O)[C@H](CC(N)=O)NC(=O)[C@@H](Cc1c[nH]c2ccccc12)NC(=O)[C@H](CC(N)=O)NC(=O)[C@H](N)Cc1ccc(O)cc1)C(=O)N[C@@H](Cc1ccccc1)C(N)=O
0.041	3.3	35.3	2.8	–	–	–	–	–	–	CNC(N)=NCCC[C@H](NC(=O)[C@H](CC(C)C)NC(=O)CNC(=S)[C@H](Cc1ccccc1)NC(=O)[C@H](CO)NC(=O)[C@H](CC(N)=O)NC(=O)[C@H](Cc1c[nH]c2ccccc12)NC(=O)[C@H](CC(N)=O)NC(=O)[C@H](N)Cc1ccc(O)cc1)C(=O)N[C@@H](Cc1ccccc1)C(N)=O (H-[dY]NWNS[X1]L[Arg(Me)]F-NH2)
0.049	–	–	0.082	0.9	< 0.5	< 0.5	–	< 0.0167	> 50	CC(C)C[C@H](NC(=O)CNC(=O)[C@H](Cc1ccccc1)NC(=O)[C@H](CO)NC(=O)[C@H](CC(N)=O)NC(=O)[C@H](Cc1c[nH]c2ccccc12)NC(=O)[C@H](CC(N)=O)NC(=O)[C@@H](N)Cc1ccc(O)cc1)C(=O)N[C@@H](CCCNC(=N)N)C(=O)N[C@@H](Cc1ccccc1)C(N)=O [KISSPEPTIN-10]

Compound	EC50 (KiSS-1 receptor [1]) [nM]	IC50 (KiSS-1 receptor [2]) [nM]	remaining at 1 h, 100 µM [3] [%]	IC50 (KiSS-1 receptor [4]) [nM]	remaining at 5 min [5] [%]	remaining at 10 min [6] [%]	remaining at 0.25 h [7] [%]	Stability (Serum)	half-life [8] [h]	metabolised at 1 min, 100 µM [9] [%]
CNC(N)=NCCC[C@H](NC(=O)[C@H](CC(C)C)NC(=O)CC(=O)N[C@H](Cc1ccccc1)NC(=O)[C@H](CO)NC(=O)[C@H](CC(N)=O)NC(=O)[C@H](Cc1c[nH]c2ccccc12)NC(=O)[C@H](CC(N)=O)NC(=O)[C@H](N)Cc1ccc(O)cc1)C(=O)N[C@@H](Cc1ccccc1)C(N)=O	0.95	2.9	46.8	0.51	–	–	–	–	–	–
